Data on one sequence can be found in patent US20120083522A1, “MODULATION OF INFLAMMATORY RESPONSES BY FACTOR XI” (Isis Pharmaceuitcals, inc., priority 2009, published 2012).

The subject of data set [1] is DSS-induced colitis model. In words: Colitis Study E: weight change, colon length, stool analysis. The settings on record: for Colon length / Weight change / Diarrhea score: DSS-treated mice; for Colon length / Weight change: 40 mpk; for Diarrhea score: day 7, 40 mpk. It is filed as in vivo, Swiss Webb mice. As for the experimental part:
(§1) Two groups 8 Swiss Webb mice were dosed with 40 mg/kg of ISIS 404071 injected subcutaneously twice a week for 3 weeks. Two control groups of 8 Swiss Webb mice were dosed with PBS subcutaneously twice a week for 3 weeks. Both the ASO treated groups and one of the control groups were then given 4% DSS in distilled water for 7 days ad libitum. One of the ASO and DSS treated groups was also given intravenous injections of 20 μg of recombinant human Factor XI protein (Haematologic Technologies Inc.) for 7 consecutive days, starting the day before DSS treatment. Mice were sacrificed at the end of the study on day 7 after DSS was administered.
Mice in all groups were weighed at day 0 and at the end of the study. […] Mice were sacrificed at the end of the study on day 7 after DSS was administered and their colon lengths were measured.

Data set [2] has as its system soluble CD40 ligand (CD40L). In words: Colitis Study E: CD40L plasma levels. It is filed as in vivo, Swiss Webb mice. The settings on record: for CD40L plasma levels: DSS-treated mice, day 7, 40 mpk. As for the experimental part:
as §1
Plasma levels of soluble CD40 ligand (CD40L) are known to be elevated in cases of inflammatory bowel disease (Ludwiczek, O. et al., Int. J. Colorectal Disease. 2003. 18: 142-147) and may be considered a marker of intestinal inflammation. The effect of antisense inhibition of Factor XI on CD40L levels in the plasma was evaluated at the end of the study on day 7 after DSS was administered and the results are presented in Table 39. CD40L levels in plasma were measured by commercially available ELISA kits (Bender MedSystems, Vienna, Austria, eBioscience, San Diego, Calif.) according to the manufacture's protocols.

In data set [3] the test system is DSS-induced colitis model. In words: Colitis Study C: stool softness/diarrhea. Type of data set: in vivo, mice. To be noted: after seven days. As for the experimental part:
A third study on colitis using Factor XI oligonucleotide (ISIS 404071, SEQ ID NO: 11) was conducted. The study was performed essentially as described earlier in this example. A stool softness/diarrhea study was conducted.

The subject of data set [4] is Factor XI mRNA. In words: Colitis Study E: Factor XI mRNA levels. It is filed as in vivo, Swiss Webb mice. To be noted: compared to untreated PBS control; for % inhibition of Factor XI mRNA levels: DSS-treated mice, 40 mpk. As for the experimental part: as §1
For data set [5], the system named is murine Factor XI mRNA. In words: In vivo antisense inhibition of murine Factor XI: liver RNA analysis (Example 10). The settings on record: BALB/c mice, relative to PBS control. How it is done:
Several antisense oligonucleotides targeted to murine Factor XI mRNA (GENBANK Accession No. NM_028066.1, incorporated herein as SEQ ID NO: 6) showing statistically significant dose-dependent inhibition from the in vitro study were evaluated in vivo. BALB/c mice were treated with ISIS 404057 ([…], target start site 487, incorporated herein as SEQ ID NO: 10) and ISIS 404071 ([…], target start site 869, incorporated herein as SEQ ID NO: 11).
BALB/c mice were injected with 5 mg/kg, 10 mg/kg, 25 mg/kg, or 50 mg/kg of ISIS 404057 or ISIS 404071 twice a week for 3 weeks. A control group of mice was injected with phosphate buffered saline (PBS) twice a week for 3 weeks. Mice were sacrificed 5 days after receiving the last dose. Whole liver was harvested for RNA analysis and plasma was collected for protein analysis.
RNA was extracted from liver tissue for real-time PCR analysis of Factor XI. […] Results are presented as percent inhibition of Factor XI, relative to control.

Data set [6] has as its system bradykinin. In words: Colitis Study D: bradykinin levels in colon. The settings on record: for Bradykinin levels in colon: DSS-treated mice. Type of data set: in vivo, Swiss Webb mice. As for the experimental part:
In a first group of 8 Swiss Webb mice, 10 mg/kg of ISIS 404071 was injected subcutaneously twice a week for 3 weeks. In a second group of 8 Swiss Webb mice, 20 mg/kg of ISIS 404057 was subcutaneously injected twice a week for 3 weeks. In a third control group of 8 Swiss Webb mice, 40 mg/kg of ISISI 404057 was injected subcutaneously twice a week for 3 weeks. Two control groups of 8 mice each were injected with PBS twice a week for 3 weeks. After the oligonucleotide treatment, 4% DSS in water was administered ad libitum for 7 days to all the experimental groups and one PBS control group.
The effect of antisense inhibition of Factor XI on kinin levels in the colon was evaluated (Phoenix Pharmaceuticals, Burlingame, Calif.) and the results are presented in Table 32.

The mark [7] stands for this setting: plus human recombinant FXI 20 ug/mouse/day.

What is called % inhibition is how much of the control response was suppressed. Low values mean little suppression, high ones strong suppression.

In the oligonucleotide strings, read from the 5' end, every base follows the letter of its sugar. An asterisk marks phosphorothioate; unmarked linkages are phosphodiester. Other units and linkages are bracketed, terminal groups are in braces. A string of capitals states the bases alone. e = 2'-O-(2-methoxyethyl) (MOE); [5mC] = 5-methylcytosine; d = 2'-deoxy (DNA)

For “TGGTAATCCACTTTCAGAGG (eT*eG*eG*eT*eA*dA*dT*d[5mC]*d[5mC]*dA*d[5mC]*dT*dT*dT*d[5mC]*eA*eG*eA*eG*eG) [ISIS 404071, 5-10-5 MOE gapmer targeting murine Factor XI, target start site 869]”, in data set [1] (Colitis Study E, day 7), the “colon length (in words)” value is given as “increase in colon length”. The “stool softness/diarrhea (in words)” value was “amelioration of diarrhea” in data set [1] (Colitis Study E, day 7) and “normal to soft stool but no diarrhea” in data set [3]. Also, the Colon length in data set [1] (no human recombinant FXI) was found to be 9.9 cm; in data set [1] (setting [7]) it was 7.3 cm. For the same sequence, the results for the Weight change result in data set [1] (no human recombinant FXI) and in data set [1] (setting [7]) were “+1.8%” and “+0.3%”, respectively. The Diarrhea score was found to be 0.5 in data set [1] (no human recombinant FXI) and 2.0 in data set [1] (setting [7]). Besides, the “CD40L levels in plasma (in words)” value in data set [2] (Colitis Study E, day 7) is “decreased”. In addition, the CD40L plasma levels in data set [2] (no human recombinant FXI) is recorded as 1.5 ng/mL; in data set [2] (setting [7]) it was 1.6 ng/mL. For the same sequence, the “Factor XI levels (in words)” value in data set [4] (Colitis Study E, 40 mg/kg) was “significantly decreased”. The “% inhibition of Factor XI mRNA levels” value in data set [4] (no human recombinant FXI) was 82%; in data set [4] (setting [7]), 83%. In addition, the “% inhibition” value in data set [5] (5 mg/kg twice a week for 3 weeks) was found to be 72%; in data set [5] (10 mg/kg twice a week for 3 weeks), 82%; in data set [5] (25 mg/kg twice a week for 3 weeks), 93%; in data set [5] (50 mg/kg twice a week for 3 weeks), 96%. The “bradykinin levels (in words)” value in data set [6] (Colitis Study D) is given as “decreased”. The “Bradykinin levels in colon” value in data set [6] (10 mpk) was determined as 0.03 ng/mg protein; in data set [6] (20 mpk), 0.00 ng/mg protein; in data set [6] (40 mpk), 0.02 ng/mg protein.
